# Species on record: Rattus norvegicus
# Experiment: Open TG-GATES - Regimen: Single
# Type: toxicity, organism-based, Sprague-Dawley
# Set-up: regimen Single, gender Male, age 6 weeks
# Settings: in vivo, po, 300 mg/kg, route gavage, dose level Middle; for APTT / Bas / Eos / Fbg / Hb / Ht / Lym / MCH / MCHC / MCV / Mono / Neu / PT / Plat / RBC / Ret / WBC: tissue Blood; for KIDNEY_L / KIDNEY_R / KIDNEY_TOTAL: tissue Kidney; for LIVER: tissue Liver; for A/G / ALP / ALT / AST / BUN / CRE / Ca / Cl / DBIL / GLC / IP / K / LDH / Na / PL / RALB / TBIL / TC / TG / TP / gamma-GTP: tissue Plasma
smiles,measurement,setting,value
CC(=O)Nc1ccc2c(c1)Cc1ccccc1-2 [2-ACETYLAMINOFLUORENE],TERMINAL_BW,3 h,222.8 g
same,APTT,3 h,19.8 s
same,Bas,3 h,0.4%
same,Eos,3 h,1.2%
same,Fbg,3 h,222.4 mg/dL
same,Hb,3 h,13.9 g/dL
same,Ht,3 h,39.7%
same,Lym,3 h,69.8%
same,MCH,3 h,22.1 pg
same,MCHC,3 h,34.9%
same,MCV,3 h,63.3 fL
same,Mono,3 h,2.8%
same,Neu,3 h,25.4%
same,PT,3 h,12 s
same,Plat,3 h,131.6 x10_4/uL
same,RBC,3 h,626.2 x10_4/ul
same,Ret,3 h,7.1%
same,WBC,3 h,74.2 x10_2/uL
same,KIDNEY_L,3 h,1 g
same,KIDNEY_R,3 h,0.9 g
same,KIDNEY_TOTAL,3 h,1.9 g
same,LIVER,3 h,10.3 g
same,A/G,3 h,1.7
same,ALP,3 h,922.4 IU/L
same,ALT,3 h,39 IU/L
same,AST,3 h,78 IU/L
same,BUN,3 h,12.8 mg/dL
same,CRE,3 h,0.4 mg/dL
same,Ca,3 h,10.8 mg/dL
same,Cl,3 h,103.8 meq/L
same,DBIL,3 h,0.07 mg/dL
same,GLC,3 h,201.6 mg/dL
same,IP,3 h,10.2 mg/dL
same,K,3 h,3.9 meq/L
same,LDH,3 h,195.8 IU/L
same,Na,3 h,141.6 meq/L
same,PL,3 h,133.2 mg/dL
same,RALB,3 h,3.6 g/dL
same,TBIL,3 h,0.1 mg/dL
same,TC,3 h,74.6 mg/dL
same,TG,3 h,62.6 mg/dL
same,TP,3 h,5.7 g/dL
same,gamma-GTP,3 h,1.4 IU/L
same,TERMINAL_BW,6 h,219.1 g
same,APTT,6 h,20 s
same,Bas,6 h,0.6%
same,Eos,6 h,0.8%
same,Fbg,6 h,224.8 mg/dL
same,Hb,6 h,14.4 g/dL
same,Ht,6 h,41.9%
same,Lym,6 h,77.2%
same,MCH,6 h,21.9 pg
same,MCHC,6 h,34.4%
same,MCV,6 h,63.5 fL
same,Mono,6 h,2.2%
same,Neu,6 h,18.8%
same,PT,6 h,12.8 s
same,Plat,6 h,128 x10_4/uL
same,RBC,6 h,661.8 x10_4/ul
same,Ret,6 h,7.2%
same,WBC,6 h,67.5 x10_2/uL
same,KIDNEY_L,6 h,1 g
same,KIDNEY_R,6 h,1 g
same,KIDNEY_TOTAL,6 h,2 g
same,LIVER,6 h,10 g
same,A/G,6 h,1.6
same,ALP,6 h,837.8 IU/L
same,ALT,6 h,31.6 IU/L
same,AST,6 h,67.6 IU/L
same,BUN,6 h,12.2 mg/dL
same,CRE,6 h,0.5 mg/dL
same,Ca,6 h,10.8 mg/dL
same,Cl,6 h,102.6 meq/L
same,DBIL,6 h,0.068 mg/dL
same,GLC,6 h,218.2 mg/dL
same,IP,6 h,9.1 mg/dL
same,K,6 h,3.8 meq/L
same,LDH,6 h,191.4 IU/L
same,Na,6 h,141 meq/L
same,PL,6 h,144.4 mg/dL
same,RALB,6 h,3.5 g/dL
same,TBIL,6 h,0.1 mg/dL
same,TC,6 h,85.2 mg/dL
same,TG,6 h,32.6 mg/dL
same,TP,6 h,5.6 g/dL
same,gamma-GTP,6 h,1.2 IU/L

# — ChEMBL document CHEMBL3885861, “Open TG-GATES”
